Measurements as given in publication PMC8635029 (Frontiers in Pharmacology, 2021).

Assays:
Assay in all cases: In vitro SafetyScreen panel
Type in all cases: binding
[1] = molecular target: T1, Muscarinic M4 (Homo sapiens, UniProt P08173)
T1 construct: Eurofins Discovery (outsourced panel) PP223
Description: (§1) In vitro off-target pharmacological activities of HSK21542 were evaluated on 86 targets using a SafetyScreen panel (Item PP223, target selectivity panel) and the corresponding methods could be found at https://www.eurofinsdiscoveryservices.com/.

[2] = molecular target: T2, Cannabinoid CB2 (Homo sapiens, UniProt P34972)
T2 construct: Eurofins Discovery (contract panel) PP223
Description: as §1

[3] = molecular target: T3, Dopamine D1 (Homo sapiens, UniProt P21728)
T3 construct: Eurofins Discovery (contract panel) Item PP223
Description: as §1

[4] = molecular target: T4, Serotonin (5-Hydroxytryptamine) 5-HT1A (Homo sapiens, UniProt P08908)
T4 construct: Eurofins Discovery (outsourced panel) PP223
Description: as §1

[5] = molecular target: T5, Melanocortin MC4 (Homo sapiens, UniProt P32245)
T5 construct: Eurofins Discovery (contract panel) Item PP223
Description: as §1

[6] = molecular target: T6, Calcium Channel N-Type (Rattus norvegicus, UniProt Q02294)
T6 construct: Eurofins Discovery (contract panel) PP223
Description: as §1

[7] = molecular target: T7, Opiate μ (OP3, MOP) (Homo sapiens, UniProt P35372)
T7 construct: Eurofins Discovery (outsourced panel) PP223
Description: as §1

[8] = molecular target: T8, Serotonin (5-Hydroxytryptamine) 5-HT2C (Homo sapiens, UniProt P28335)
T8 construct: Eurofins Discovery (contract panel) PP223
Description: as §1

[9] = molecular target: T9, Adrenergic β1 (Homo sapiens, UniProt P08588)
T9 construct: Eurofins Discovery (contract panel) PP223
Description: as §1

[10] = molecular target: T10, Cholecystokinin CCK2 (CCKB) (Homo sapiens, UniProt P32239)
T10 construct: Eurofins Discovery (contract panel) PP223
Description: as §1

[11] = molecular target: T11, Platelet Activating Factor (PAF) (Homo sapiens, UniProt P25105)
T11 construct: Eurofins Discovery (outsourced panel) PP223
Description: as §1

[12] = molecular target: T12, Opiate δ1 (OP1, DOP) (Homo sapiens, UniProt P41143)
T12 construct: Eurofins Discovery (outsourced panel) PP223
Description: as §1

[13] = molecular target: T13, Bradykinin B2 (Homo sapiens, UniProt P30411)
T13 construct: Eurofins Discovery (contract panel) PP223
Description: as §1

[14] = molecular target: T14, Angiotensin AT1 (Homo sapiens, UniProt P30556)
T14 construct: Eurofins Discovery (contract panel) PP223
Description: as §1

[15] = molecular target: T15, Vasopressin V1A (Homo sapiens, UniProt P37288)
T15 construct: Eurofins Discovery (contract panel) PP223
Description: as §1

[16] = molecular target: T16, Adrenergic β2 (Homo sapiens, UniProt P07550)
T16 construct: Eurofins Discovery (contract panel) PP223
Description: as §1

[17] = molecular target: T17, Chemokine CXCR2 (IL-8RB) (Homo sapiens, UniProt P25025)
T17 construct: Eurofins Discovery (contract panel) PP223
Description: as §1

[18] = molecular target: T18, Chemokine CCR1 (Homo sapiens, UniProt P32246)
T18 construct: Eurofins Discovery (contract panel) PP223
Description: as §1

[19] = molecular target: T19, Glucocorticoid (Homo sapiens, UniProt P04150)
T19 construct: Eurofins Discovery (contract panel) Item PP223
Description: as §1

[20] = molecular target: T20, Adenosine A2A (Homo sapiens, UniProt P29274)
T20 construct: Eurofins Discovery (contract panel) PP223
Description: as §1

[21] = molecular target: T21, Potassium Channel hERG (Homo sapiens, UniProt Q12809)
T21 construct: Eurofins Discovery (outsourced panel) PP223
Description: as §1

[22] = molecular target: T22, Adrenergic α1B (Rattus norvegicus, UniProt P15823)
T22 construct: Eurofins Discovery (contract panel) PP223
Description: as §1

[23] = molecular target: T23, Histamine H2 (Homo sapiens, UniProt P25021)
T23 construct: Eurofins Discovery (contract panel) Item PP223
Description: as §1

[24] = molecular target: T24, Muscarinic M3 (Homo sapiens, UniProt P20309)
T24 construct: Eurofins Discovery (outsourced panel) PP223
Description: as §1

[25] = molecular target: T25, Adenosine A1 (Homo sapiens, UniProt P30542)
T25 construct: Eurofins Discovery (contract panel) PP223
Description: as §1

[26] = molecular target: T26, Transporter, Serotonin (5-Hydroxytryptamine) (SERT) (Homo sapiens, UniProt P31645)
T26 construct: Eurofins Discovery (contract panel) PP223
Description: as §1

[27] = molecular target: T27, PPARγ (Homo sapiens, UniProt P37231)
T27 construct: Eurofins Discovery (outsourced panel) PP223
Description: as §1

[28] = molecular target: T28, Serotonin (5-Hydroxytryptamine) 5-HT2A (Homo sapiens, UniProt P28223)
T28 construct: Eurofins Discovery (outsourced panel) PP223
Description: as §1

[29] = molecular target: T29, Histamine H1 (Homo sapiens, UniProt P35367)
T29 construct: Eurofins Discovery (contract panel) Item PP223
Description: as §1

[30] = molecular target: T30, Estrogen ERα (Homo sapiens, UniProt P03372)
T30 construct: Eurofins Discovery (contract panel) Item PP223
Description: as §1

[31] = molecular target: T31, Dopamine D2L (Homo sapiens, UniProt P14416)
T31 construct: Eurofins Discovery (contract panel) Item PP223
Description: as §1

[32] = molecular target: T32, Serotonin (5-Hydroxytryptamine) 5-HT3 (Homo sapiens, UniProt P46098)
T32 construct: Eurofins Discovery (contract panel) PP223
Description: as §1

[33] = molecular target: T33, Serotonin (5-Hydroxytryptamine) 5-HT1B (Homo sapiens, UniProt P28222)
T33 construct: Eurofins Discovery (outsourced panel) PP223
Description: as §1

[34] = molecular target: T34, Cholecystokinin CCK1 (CCKA) (Homo sapiens, UniProt P32238)
T34 construct: Eurofins Discovery (contract panel) PP223
Description: as §1

[35] = molecular target: T35, Endothelin ETA (Homo sapiens, UniProt P25101)
T35 construct: Eurofins Discovery (contract panel) Item PP223
Description: as §1

[36] = molecular target: T36, Transporter, Dopamine (DAT) (Homo sapiens, UniProt Q01959)
T36 construct: Eurofins Discovery (contract panel) PP223
Description: as §1

[37] = molecular target: T37, Tachykinin NK1 (Homo sapiens, UniProt P25103)
T37 construct: Eurofins Discovery (contract panel) PP223
Description: as §1

[38] = molecular target: T38, Cannabinoid CB1 (Homo sapiens, UniProt P21554)
T38 construct: Eurofins Discovery (contract panel) PP223
Description: as §1

[39] = molecular target: T39, Adrenergic α1A (Rattus norvegicus, UniProt P43140)
T39 construct: Eurofins Discovery (contract panel) PP223
Description: as §1

[40] = molecular target: T40, GABAB1A (Homo sapiens, UniProt Q9UBS5)
T40 construct: Eurofins Discovery (contract panel) Item PP223
Description: as §1

[41] = molecular target: T41, Melanocortin MC1 (Homo sapiens, UniProt Q01726)
T41 construct: Eurofins Discovery (contract panel) Item PP223
Description: as §1

T19 sequence (P04150 whole entry): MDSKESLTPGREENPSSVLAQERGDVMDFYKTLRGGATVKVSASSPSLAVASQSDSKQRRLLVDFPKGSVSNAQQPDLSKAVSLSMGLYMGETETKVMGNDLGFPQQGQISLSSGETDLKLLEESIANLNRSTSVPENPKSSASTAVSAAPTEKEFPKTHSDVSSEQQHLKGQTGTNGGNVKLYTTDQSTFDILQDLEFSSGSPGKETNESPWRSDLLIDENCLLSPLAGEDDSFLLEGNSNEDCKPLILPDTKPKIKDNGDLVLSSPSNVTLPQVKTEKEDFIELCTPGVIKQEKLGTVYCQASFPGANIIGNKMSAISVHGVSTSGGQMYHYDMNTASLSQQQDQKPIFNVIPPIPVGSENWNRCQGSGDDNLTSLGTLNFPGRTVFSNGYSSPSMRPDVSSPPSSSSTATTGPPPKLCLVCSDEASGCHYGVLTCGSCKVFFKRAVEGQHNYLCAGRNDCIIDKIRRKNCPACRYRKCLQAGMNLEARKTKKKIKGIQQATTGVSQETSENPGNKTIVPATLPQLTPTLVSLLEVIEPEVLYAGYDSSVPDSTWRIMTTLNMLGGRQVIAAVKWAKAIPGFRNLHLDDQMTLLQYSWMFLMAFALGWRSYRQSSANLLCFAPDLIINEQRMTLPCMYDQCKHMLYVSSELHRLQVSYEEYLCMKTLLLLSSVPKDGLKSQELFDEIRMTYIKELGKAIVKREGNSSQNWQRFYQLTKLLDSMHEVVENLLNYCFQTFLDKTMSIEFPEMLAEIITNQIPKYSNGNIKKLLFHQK
T23 sequence (P25021 whole entry): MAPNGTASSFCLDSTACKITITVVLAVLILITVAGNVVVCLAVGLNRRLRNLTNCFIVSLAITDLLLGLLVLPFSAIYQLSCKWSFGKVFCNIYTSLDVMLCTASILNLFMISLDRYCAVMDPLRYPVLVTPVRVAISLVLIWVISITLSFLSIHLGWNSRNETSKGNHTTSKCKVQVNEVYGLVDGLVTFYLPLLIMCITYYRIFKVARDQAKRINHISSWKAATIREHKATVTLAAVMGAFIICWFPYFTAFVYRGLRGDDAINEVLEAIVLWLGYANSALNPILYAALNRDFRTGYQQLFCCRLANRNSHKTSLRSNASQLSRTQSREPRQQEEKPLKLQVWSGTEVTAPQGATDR
T3 sequence (P21728 whole entry): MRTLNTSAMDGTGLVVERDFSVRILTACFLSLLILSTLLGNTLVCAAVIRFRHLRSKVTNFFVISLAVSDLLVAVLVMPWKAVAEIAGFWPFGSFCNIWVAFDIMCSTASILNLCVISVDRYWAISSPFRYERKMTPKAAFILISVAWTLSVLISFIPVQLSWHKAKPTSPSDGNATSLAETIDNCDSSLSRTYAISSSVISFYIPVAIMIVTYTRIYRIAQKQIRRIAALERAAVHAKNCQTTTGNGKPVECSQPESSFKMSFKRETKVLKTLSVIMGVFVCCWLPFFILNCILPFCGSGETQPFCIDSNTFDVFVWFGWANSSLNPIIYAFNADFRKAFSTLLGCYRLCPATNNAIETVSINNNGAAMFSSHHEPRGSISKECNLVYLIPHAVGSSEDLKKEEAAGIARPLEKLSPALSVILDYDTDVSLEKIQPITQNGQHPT
T22 sequence (P15823 whole entry): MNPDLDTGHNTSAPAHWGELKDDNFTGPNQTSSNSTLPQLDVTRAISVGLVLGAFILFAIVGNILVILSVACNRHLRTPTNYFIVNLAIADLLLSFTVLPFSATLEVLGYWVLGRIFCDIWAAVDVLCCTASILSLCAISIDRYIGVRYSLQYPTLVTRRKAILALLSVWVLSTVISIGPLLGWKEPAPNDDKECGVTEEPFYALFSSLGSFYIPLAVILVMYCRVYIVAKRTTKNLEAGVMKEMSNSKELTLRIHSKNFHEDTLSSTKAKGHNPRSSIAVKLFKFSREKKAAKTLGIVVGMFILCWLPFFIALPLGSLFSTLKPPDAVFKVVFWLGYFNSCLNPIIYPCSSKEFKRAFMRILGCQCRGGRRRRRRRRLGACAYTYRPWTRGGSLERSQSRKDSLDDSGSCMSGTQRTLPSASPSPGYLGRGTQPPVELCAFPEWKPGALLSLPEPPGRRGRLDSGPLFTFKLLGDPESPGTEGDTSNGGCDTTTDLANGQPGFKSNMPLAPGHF
T27 sequence (P37231 whole entry): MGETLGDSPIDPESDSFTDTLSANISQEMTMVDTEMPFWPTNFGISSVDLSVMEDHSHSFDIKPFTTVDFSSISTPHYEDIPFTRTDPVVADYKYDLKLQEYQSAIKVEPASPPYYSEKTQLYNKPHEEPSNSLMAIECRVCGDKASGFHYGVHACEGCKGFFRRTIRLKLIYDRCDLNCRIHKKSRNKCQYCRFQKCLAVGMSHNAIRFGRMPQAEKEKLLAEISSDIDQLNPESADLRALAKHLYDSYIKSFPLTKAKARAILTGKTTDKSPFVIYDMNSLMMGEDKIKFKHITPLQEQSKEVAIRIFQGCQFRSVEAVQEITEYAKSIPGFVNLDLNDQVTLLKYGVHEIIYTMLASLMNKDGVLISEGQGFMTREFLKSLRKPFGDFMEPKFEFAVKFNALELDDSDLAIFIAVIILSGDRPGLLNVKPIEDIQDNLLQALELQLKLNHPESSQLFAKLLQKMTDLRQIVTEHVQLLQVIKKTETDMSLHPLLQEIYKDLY
T41 sequence (Q01726 whole entry): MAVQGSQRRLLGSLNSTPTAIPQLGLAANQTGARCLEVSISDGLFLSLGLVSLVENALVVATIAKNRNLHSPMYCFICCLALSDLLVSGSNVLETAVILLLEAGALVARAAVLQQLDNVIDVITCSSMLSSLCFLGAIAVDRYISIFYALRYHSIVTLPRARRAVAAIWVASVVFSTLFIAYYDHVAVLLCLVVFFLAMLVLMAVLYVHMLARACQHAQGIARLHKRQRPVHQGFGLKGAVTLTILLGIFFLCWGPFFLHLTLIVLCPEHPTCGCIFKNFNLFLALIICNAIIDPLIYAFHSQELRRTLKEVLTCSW
T30 sequence (P03372 whole entry): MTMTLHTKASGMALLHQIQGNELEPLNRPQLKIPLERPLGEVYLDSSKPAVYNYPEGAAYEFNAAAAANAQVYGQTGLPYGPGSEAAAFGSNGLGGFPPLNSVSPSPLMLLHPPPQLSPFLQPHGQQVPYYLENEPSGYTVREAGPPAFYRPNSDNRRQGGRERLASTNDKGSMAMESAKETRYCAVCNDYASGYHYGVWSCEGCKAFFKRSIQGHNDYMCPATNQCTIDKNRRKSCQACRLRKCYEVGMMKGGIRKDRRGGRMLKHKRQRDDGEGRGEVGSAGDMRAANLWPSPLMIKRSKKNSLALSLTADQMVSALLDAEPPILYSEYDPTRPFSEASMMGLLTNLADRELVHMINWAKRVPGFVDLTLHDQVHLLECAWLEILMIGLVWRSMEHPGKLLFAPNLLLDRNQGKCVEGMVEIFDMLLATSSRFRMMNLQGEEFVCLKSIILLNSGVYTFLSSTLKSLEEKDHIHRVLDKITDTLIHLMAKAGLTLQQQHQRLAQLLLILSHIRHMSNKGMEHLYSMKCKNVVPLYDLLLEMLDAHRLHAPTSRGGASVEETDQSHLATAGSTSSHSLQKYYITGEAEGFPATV
T28 sequence (P28223 whole entry): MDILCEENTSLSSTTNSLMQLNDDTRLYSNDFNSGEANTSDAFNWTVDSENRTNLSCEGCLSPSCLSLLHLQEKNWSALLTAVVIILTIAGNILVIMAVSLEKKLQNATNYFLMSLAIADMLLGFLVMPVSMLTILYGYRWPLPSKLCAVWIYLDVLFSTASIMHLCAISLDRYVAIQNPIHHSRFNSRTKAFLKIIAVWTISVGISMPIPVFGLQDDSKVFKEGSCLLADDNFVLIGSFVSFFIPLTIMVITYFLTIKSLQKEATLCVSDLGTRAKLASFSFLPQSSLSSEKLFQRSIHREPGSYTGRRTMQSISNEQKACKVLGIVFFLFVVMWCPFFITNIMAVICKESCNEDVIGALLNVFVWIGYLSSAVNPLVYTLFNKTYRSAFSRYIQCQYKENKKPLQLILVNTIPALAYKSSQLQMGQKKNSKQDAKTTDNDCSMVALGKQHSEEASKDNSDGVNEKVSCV
T38 sequence (P21554 whole entry): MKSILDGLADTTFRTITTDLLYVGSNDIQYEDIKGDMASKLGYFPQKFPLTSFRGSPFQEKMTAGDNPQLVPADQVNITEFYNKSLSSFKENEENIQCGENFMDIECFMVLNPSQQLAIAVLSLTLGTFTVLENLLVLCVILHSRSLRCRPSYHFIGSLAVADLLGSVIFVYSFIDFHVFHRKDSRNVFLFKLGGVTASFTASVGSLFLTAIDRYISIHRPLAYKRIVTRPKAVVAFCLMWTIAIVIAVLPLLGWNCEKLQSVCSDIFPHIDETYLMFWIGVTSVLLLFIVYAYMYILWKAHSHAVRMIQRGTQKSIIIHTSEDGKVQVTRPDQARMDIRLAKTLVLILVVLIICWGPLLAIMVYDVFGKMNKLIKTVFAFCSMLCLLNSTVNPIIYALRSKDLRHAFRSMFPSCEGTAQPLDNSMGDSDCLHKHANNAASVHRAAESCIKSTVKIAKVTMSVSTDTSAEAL
T14 sequence (P30556 whole entry): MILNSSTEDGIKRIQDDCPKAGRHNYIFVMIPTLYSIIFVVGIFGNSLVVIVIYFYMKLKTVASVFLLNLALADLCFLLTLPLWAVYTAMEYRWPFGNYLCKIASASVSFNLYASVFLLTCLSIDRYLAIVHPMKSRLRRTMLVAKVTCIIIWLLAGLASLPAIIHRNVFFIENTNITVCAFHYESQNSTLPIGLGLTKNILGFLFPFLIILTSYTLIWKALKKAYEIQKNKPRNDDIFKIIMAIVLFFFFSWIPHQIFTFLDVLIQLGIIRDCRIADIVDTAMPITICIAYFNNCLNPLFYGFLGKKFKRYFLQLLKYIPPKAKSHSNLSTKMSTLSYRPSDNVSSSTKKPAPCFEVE

**Q.** What does the source list for CC(=O)N1CC2(CCN(C(=O)[C@@H](CCCCN)NC(=O)[C@@H](CC(C)C)NC(=O)[C@@H](Cc3ccccc3)NC(=O)[C@H](N)Cc3ccccc3)CC2)C1 [HSK21542, 7-(D-phenylalanyl-D-phenylalanyl-D-leucyl-D-lysyl)-2-acetyl-2,7-diazaspiro (3.5)nonane]?
**A.** inhibition at 10 µM [1]: 3%; inhibition at 10 µM [2]: -30%; inhibition at 10 µM [3]: 3%; inhibition at 10 µM [4]: 1%; inhibition at 10 µM [5]: 27%; inhibition at 10 µM [6]: -3%; inhibition at 10 µM [7]: 0%; inhibition at 10 µM [8]: 0%; inhibition at 10 µM [9]: 11%; inhibition at 10 µM [10]: -12%; inhibition at 10 µM [11]: 10%; inhibition at 10 µM [12]: 5%; inhibition at 10 µM [13]: -3%; inhibition at 10 µM [14]: -7%; inhibition at 10 µM [15]: -24%; inhibition at 10 µM [16]: 3%; inhibition at 10 µM [17]: 4%; inhibition at 10 µM [18]: -4%; inhibition at 10 µM [19]: 8%; inhibition at 10 µM [20]: 3%; inhibition at 10 µM [21]: 1%; inhibition at 10 µM [22]: 3%; inhibition at 10 µM [23]: 8%; inhibition at 10 µM [24]: -3%; inhibition at 10 µM [25]: 0%; inhibition at 10 µM [26]: 7%; inhibition at 10 µM [27]: 3%; inhibition at 10 µM [28]: 0%; inhibition at 10 µM [29]: 4%; inhibition at 10 µM [30]: 0%; inhibition at 10 µM [31]: -6%; inhibition at 10 µM [32]: 14%; inhibition at 10 µM [33]: 1%; inhibition at 10 µM [34]: 5%; inhibition at 10 µM [35]: 4%; inhibition at 10 µM [36]: 2%; inhibition at 10 µM [37]: 21%; inhibition at 10 µM [38]: 47%; inhibition at 10 µM [39]: 12%; inhibition at 10 µM [40]: -8%; inhibition at 10 µM [41]: -3%
